One assay concerns sMIC. In words: Serum sMIC measured by ELISA longitudinally during IM treatment of GIST patients. It is filed as in vivo, human. The note with it: followed during treatment. A general note: ELISA stands for enzyme-linked immunosorbent assay.
A further assay deals with sB7H6. As to the kind of experiment: Serum sB7H6 measured by ELISA longitudinally during IM treatment of GIST patients. It is filed as in vivo, human.

Protocol for sB7H6: 49 GIST patients were treated with imatinib (IM) from May 1994 until October 2010 (BFR14 cohort). Patients' samples were provided by the Gustave Roussy Institute (Villejuif, France) and the Centre Léon Bérard (Lyon). Sera were drained from blood drawn during control visits. Clinical responses were assessed by computed tomography (CT) scan and the responses were classified according to the RECIST criteria.
(§1) sB7H6 and sMIC were assessed from the sera of patients by the ELISA method.
Soluble B7-H6 detection was assessed from sera of patients by the ELISA method: 17B1.3 mAbs was coated at 5 μg/ml in 0.1 M NaHCO3 solution overnight at 4° C. in 96-well Nunc-Immuno™ plates (Thermo Scientific). Blocking solution (PBS supplemented with 3% BSA) was then added overnight at 4° C. After discarding this solution, serial dilutions of sB7-H6 were incubated for 3 hours at room temperature. Then biotin-conjugated 9G9.2 was added to each well (1 μg/ml in PBS supplemented with 1% BSA) for 1 hour at room temperature. Anti-biotin HRP (Sigma-Aldrich) was then added for 1 hour at room temperature. Finally, BD Optia TMB substrate (BD Biosciences) was used to reveal the staining and left to incubate for 15-30 minutes at room temperature. The reaction was stopped with 1 M HCl and the optic density (OD) at 450 nm was read with Apollo LB 911 from Berthold.
Protocol for sMIC: 49 GIST patients were treated with imatinib (IM) from May 1994 until October 2010 (BFR14 cohort). Patients' samples were provided by the Gustave Roussy Institute (Villejuif, France) and the Centre Léon Bérard (Lyon). Sera were drained from blood drawn during control visits. Clinical responses were assessed by computed tomography (CT) scan and the responses were classified according to the RECIST criteria. GIST tumor samples were obtained following surgery carried out at the Gustave Roussy Institute (Villejuif, France).
as §1

For the compound `Cc1ccc(NC(=O)c2ccc(CN3CCN(C)CC3)cc2)cc1Nc1nccc(-c2cccnc2)n1` [IM, imatinib], the “levels of sMIC in sera following IM treatment” value in the assay on sMIC is “tend to decrease”. Further, the “levels of sB7H6 in sera after 1 year of IM treatment” value in the assay with sB7H6 (after 1 year of treatment) is “not detected”. In addition, the “levels of sB7H6 in sera during IM treatment” value in the assay on sB7H6 (followed with time of treatment) is “decreased with the time of treatment”.

Values taken from patent publication US9557333B2, “Methods of treating gastrointestinal sarcoma patients depending on their sB7H6 serum level” (INSTITUT GUSTAVE ROUSSY, priority 2012, dated 2017).
